# Test results published in ChEMBL document CHEMBL1177838, “Synthesis and antiproliferative activity of indolizine derivatives incorporating a cyclopropylcarbonyl group against Hep-G2 cancer cell line” (Eur J Med Chem, 2010).
# Target: Epidermal growth factor receptor (Homo sapiens, UniProt P00533)
# Test: Inhibition of human EGFR autophosphorylation expressed in Sf9 cells DELFIA assay
# Format: cell-based
# Conditions: not given
# Chain of Epidermal growth factor receptor (P00533 whole entry): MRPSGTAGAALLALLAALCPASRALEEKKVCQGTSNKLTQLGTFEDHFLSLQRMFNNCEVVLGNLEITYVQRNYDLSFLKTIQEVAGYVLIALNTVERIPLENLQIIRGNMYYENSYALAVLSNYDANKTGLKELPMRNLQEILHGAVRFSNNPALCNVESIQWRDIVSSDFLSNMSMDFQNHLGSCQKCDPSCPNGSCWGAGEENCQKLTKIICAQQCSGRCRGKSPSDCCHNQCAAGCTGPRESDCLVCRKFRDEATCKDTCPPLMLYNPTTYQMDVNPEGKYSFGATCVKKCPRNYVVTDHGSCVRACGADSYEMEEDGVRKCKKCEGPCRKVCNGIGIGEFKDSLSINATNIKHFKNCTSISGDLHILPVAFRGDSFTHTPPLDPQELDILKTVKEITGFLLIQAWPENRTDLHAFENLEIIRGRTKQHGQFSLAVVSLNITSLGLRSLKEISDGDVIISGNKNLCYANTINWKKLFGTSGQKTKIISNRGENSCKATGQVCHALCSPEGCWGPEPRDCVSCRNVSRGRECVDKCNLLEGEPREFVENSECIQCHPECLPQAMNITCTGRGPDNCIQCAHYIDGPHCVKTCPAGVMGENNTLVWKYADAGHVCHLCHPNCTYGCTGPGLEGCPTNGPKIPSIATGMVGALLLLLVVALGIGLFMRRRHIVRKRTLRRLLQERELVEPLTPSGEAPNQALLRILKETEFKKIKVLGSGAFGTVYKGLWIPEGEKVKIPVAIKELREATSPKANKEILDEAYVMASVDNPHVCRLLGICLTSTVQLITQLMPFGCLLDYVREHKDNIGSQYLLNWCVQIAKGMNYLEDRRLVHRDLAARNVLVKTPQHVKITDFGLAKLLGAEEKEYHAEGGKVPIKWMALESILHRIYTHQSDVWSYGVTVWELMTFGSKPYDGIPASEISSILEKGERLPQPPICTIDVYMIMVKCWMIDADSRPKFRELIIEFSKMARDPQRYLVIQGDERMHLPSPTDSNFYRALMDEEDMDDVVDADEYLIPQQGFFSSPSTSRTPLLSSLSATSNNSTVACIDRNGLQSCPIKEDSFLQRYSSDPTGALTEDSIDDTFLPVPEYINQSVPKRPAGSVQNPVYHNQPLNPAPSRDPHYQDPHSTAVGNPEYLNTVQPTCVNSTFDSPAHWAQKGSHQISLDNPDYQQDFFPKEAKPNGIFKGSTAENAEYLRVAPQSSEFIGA
row,IC50 [nM],Compound
1,85,Cc1ccc(Br)c2c(C#N)cc(C(=O)C3CC3)n12

# System: HepG2
# Test: cells
# Conditions: Homo sapiens, HepG2, 48 h
# Description: Cytotoxicity against human HepG2 cells after 48 hrs by MTT assay
row,Compound,IC50 [µg/mL]
1,COC(=O)c1cc(C(=O)C2CC2)n2c1ccc1ccccc12,4.6
2,N#Cc1cc(C(=O)C2CC2)n2c(Br)cccc12,1.8
3,COC(=O)c1cc(C(=O)C2CC2)n2c(C)ccc(Br)c12,1.1
4,N#Cc1cc(C(=O)C2CC2)n2c1ccc1ccccc12,2.1
5,COC(=O)c1cc(C(=O)C2CC2)n2c1ccc1nccn12,25
6,N#Cc1cc(C(=O)C2CC2)n2c1ccc1nccn12,15
7,Cc1ccc(Br)c2c(C#N)cc(C(=O)C3CC3)n12,0.2
8,N#Cc1cc(C(=O)C2CC2)n2ccc3ccccc3c12,4.3
9,O=C(Nc1ccccc1)c1cc(C(=O)C2CC2)n2ccccc12,0.56
10,Cc1ccn2c(C(=O)C3CC3)cc(C#N)c2c1,21

# The next lines start with the values.
row,IC50 [µg/mL],Compound
1,0.32,N#Cc1cc(C(=O)C2CC2)n2ccccc12
2,9.3,COC(=O)c1cc(C(=O)C2CC2)n2ccc3ccccc3c12
3,2.5,COC(=O)c1cc(C(=O)C2CC2)n2c(Br)cccc12
4,27,COC(=O)c1c(C(=O)OC)c2c3ccccc3ccn2c1C(=O)C1CC1
5,0.29,CCOC(=O)c1c(C(=O)OCC)c2cc(C)ccn2c1C(=O)C1CC1
6,6.6,COC(=O)c1cc(C(=O)C2CC2)n2ccccc12
7,0.48,O=C(c1c2c(c3ccccn13)C(=O)N(c1ccccc1)C2=O)C1CC1
8,32,CCOC(=O)c1c(C(=O)OCC)c2ccccn2c1C(=O)C1CC1
9,25,COC(=O)c1cc(C(=O)C2CC2)n2ccc(C)cc12
